From US20020137929A1, “1 - (3-heterocyclylphenyl) isothiourea, -isourea, -guanidine and -amidine herbicidal agents” (Intellectual Property Department, BASF Aktiengesellschaft, priority 1998, published 2002)

Columns and labels:
CASOB (Sicklepod) = assay: Preemergence herbicidal evaluation; format: in vivo, Cassia obtusifolia; details: rated 4-5 weeks after treatment; for CASOB rating: preemergence, 0-9 scale
How it was run: (§1)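 Visual 0-9 rating vs control (stand, vigor, malformation, size, chlorosis, overall appearance), scored 4-5 wk after spraying. Seeded soil cups were treated preemergence with compound in aqueous acetone, ~0.0156-0.500 kg/ha equivalent.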

[1] = tested on: GLXMAW (Soybean, Williams); assay: Postemergence herbicidal evaluation; format: in vivo, Glycine max, (L.) Merr. cv Williams; details: postemergence
How it was run: (§2)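 Rate range approx. 0.0156–0.500 kg/ha. Foliar application at 40 psi to ~2-week seedlings; surfactant 0.5% TWEEN 20 in 50/50 acetone/water. Evaluation 4–5 wk post-treatment by 0–9 visual injury score, means of replicate tests.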

[2] = tested on: GLXMAW (Soybean, Williams); assay: Preemergence herbicidal evaluation; format: in vivo, Glycine max, (L.) Merr. cv Williams; details: rated 4-5 weeks after treatment; for GLXMAW rating: preemergence, 0-9 scale
How it was run: as §1

[3] = tested on: IPOHE (Morningglory, Ivyleaf); assay: Postemergence herbicidal evaluation; format: in vivo, Ipomoea hederacea; details: postemergence
How it was run: as §2

ABUTH (Velvetleaf) = assay: Preemergence herbicidal evaluation; format: in vivo, Abutilon theophrasti; details: rated 4-5 weeks after treatment; for ABUTH rating: preemergence, 0-9 scale
How it was run: as §1

AMBEL (Ragweed, Common) [4] = assay: Preemergence herbicidal evaluation; format: in vivo, Ambrosia artemisifolia; details: rated 4-5 weeks after treatment; for AMBEL rating: preemergence, 0-9 scale
How it was run: as §1

[5] = tested on: ECHORC (Watergrass (Calif.)); assay: Postemergence weed control under flooded paddy conditions; format: in vivo, Echinochloa oryzoides; details: postemergence weeds
How it was run: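 Flood-water application, about 0.0313–0.500 kg/ha a.i. in aqueous/acetone 50/50 v/v; water depth 1.5–3 cm throughout. Weeds 3–5 cm, rice 1.5–2.5 leaf. Greenhouse; 0–9 visual rating vs control at 3–4 wk.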

GALAP (Galium) = assay: Preemergence herbicidal evaluation; format: in vivo, Galium aparine; details: rated 4-5 weeks after treatment; for GALAP rating: preemergence, 0-9 scale
How it was run: as §1

AMBEL (Ragweed, Common) [6] = assay: Postemergence herbicidal evaluation; format: in vivo, Ambrosia artemisifolia; details: postemergence
How it was run: as §2

ECHCG (Barnyardgrass) = assay: Preemergence herbicidal evaluation; format: in vivo, Echinochloa crus-galli; details: rated 4-5 weeks after treatment; for ECHCG rating: preemergence, 0-9 scale
How it was run: as §1

[7] = tested on: SAGPY (Arrowhead (Pygmaea)); assay: Preemergence weed control under flooded paddy conditions; format: in vivo, Sagittaria pygmaea; details: rated 3-4 weeks after treatment
How it was run: (§3)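 Silt loam, seeds in top 0.5 cm; flood held 1.5-3 cm; test cpd as acetone/water 50/50 into flood water, ~0.0313-0.500 kg/ha a.i.; greenhouse 3-4 wk; visual 0-9 score vs control.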

ZEAMX (Corn, Field) = assay: Postemergence herbicidal evaluation; format: in vivo, Zea mays; details: postemergence
How it was run: as §2

CYPSE (Flatsedge) = assay: Preemergence weed control under flooded paddy conditions; format: in vivo, Cyperus serotinus; details: rated 3-4 weeks after treatment
How it was run: as §3

SETVI (Foxtail, Green) = assay: Preemergence herbicidal evaluation; format: in vivo, Setaria viridis; details: rated 4-5 weeks after treatment; for SETVI rating: preemergence, 0-9 scale
How it was run: as §1

CCOC(=O)CN1C(=O)C(=C2CCCC2)SC1=Nc1cc(-n2c(=O)cc(C(F)(F)F)n(C)c2=O)c(F)cc1Cl [Compound 18, Ethyl 2-{{2-chloro-5-[3,6-dihydro-3-methyl-2,6-dioxo-4-(trifluoromethyl)-1(2H)-pyrimidinyl]-4-fluorophenyl}imino}-5-cyclopentylidene-4-oxo-3-thiazolidineacetate]
4.5: ZEAMX herbicidal rating (ZEAMX (Corn, Field); rate 0.0315 kg/ha)
2.0: IPOHE herbicidal rating ([3]; rate 0.0158 kg/ha) | ABUTH preemergence herbicidal rating (ABUTH (Velvetleaf); rate 0.1250 kg/ha) | SETVI preemergence herbicidal rating (SETVI (Foxtail, Green); rate 0.2500 kg/ha)
3.0: GLXMAW preemergence herbicidal rating ([2]; rate 0.2500 kg/ha)
1.0: AMBEL preemergence herbicidal rating (AMBEL (Ragweed, Common) [4]; rate 0.1250 kg/ha)
6.0: IPOHE herbicidal rating ([3]; rate 0.0315 kg/ha) | Herbicidal rating SAGPY ([7]; 0.4630 kg/ha)
7.0: Herbicidal rating ECHORC ([5]; rate 0.1160 kg/ha, 3-4 weeks after treatment) | Herbicidal rating ECHORC ([5]; rate 0.2310 kg/ha, 3-4 weeks after treatment) | Herbicidal rating ECHORC ([5]; rate 0.4630 kg/ha, 3-4 weeks after treatment) | AMBEL herbicidal rating (AMBEL (Ragweed, Common) [6]; rate 0.0630 kg/ha)
4.0: AMBEL preemergence herbicidal rating (AMBEL (Ragweed, Common) [4]; rate 0.2500 kg/ha) | AMBEL herbicidal rating (AMBEL (Ragweed, Common) [6]; rate 0.0158 kg/ha) | ZEAMX herbicidal rating (ZEAMX (Corn, Field); rate 0.0158 kg/ha) | ZEAMX herbicidal rating (ZEAMX (Corn, Field); rate 0.0630 kg/ha) | Herbicidal rating CYPSE (CYPSE (Flatsedge); 0.4630 kg/ha)
9.0: IPOHE herbicidal rating ([3]; rate 0.0630 kg/ha) | ABUTH preemergence herbicidal rating (ABUTH (Velvetleaf); rate 0.2500 kg/ha) | GALAP preemergence herbicidal rating (GALAP (Galium); rate 0.2500 kg/ha) | AMBEL herbicidal rating (AMBEL (Ragweed, Common) [6]; rate 0.0315 kg/ha)
0.0: CASOB preemergence herbicidal rating (CASOB (Sicklepod); rate 0.1250 kg/ha) | CASOB preemergence herbicidal rating (CASOB (Sicklepod); rate 0.2500 kg/ha) | GLXMAW preemergence herbicidal rating ([2]; rate 0.1250 kg/ha) | GALAP preemergence herbicidal rating (GALAP (Galium); rate 0.1250 kg/ha) | ECHCG preemergence herbicidal rating (ECHCG (Barnyardgrass); rate 0.1250 kg/ha) | ECHCG preemergence herbicidal rating (ECHCG (Barnyardgrass); rate 0.2500 kg/ha) | Herbicidal rating SAGPY ([7]; 0.1160 kg/ha) | Herbicidal rating SAGPY ([7]; 0.2310 kg/ha) | Herbicidal rating CYPSE (CYPSE (Flatsedge); 0.1160 kg/ha) | Herbicidal rating CYPSE (CYPSE (Flatsedge); 0.2310 kg/ha) | SETVI preemergence herbicidal rating (SETVI (Foxtail, Green); rate 0.1250 kg/ha)
3.5: GLXMAW herbicidal rating ([1]; rate 0.0158 kg/ha) | GLXMAW herbicidal rating ([1]; rate 0.0315 kg/ha) | GLXMAW herbicidal rating ([1]; rate 0.0630 kg/ha)

CCOC(=O)CN1C(=O)C(CC(=O)OC(C)C(=O)OCC)S/C1=N/c1cc(-n2c(=O)cc(C(F)(F)F)n(C)c2=O)c(F)cc1Cl (stereo not shown) [Compound 87]
4.5: GLXMAW herbicidal rating ([1]; rate 0.0156 kg/ha) | ZEAMX herbicidal rating (ZEAMX (Corn, Field); rate 0.0313 kg/ha)
3.0: ABUTH rating (ABUTH (Velvetleaf); 0.1250 kg/ha) | Herbicidal rating ECHORC ([5]; Rate 0.2500 kg/ha, rated 3 to 4 weeks after treatment) | Herbicidal rating ECHORC ([5]; Rate 0.5000 kg/ha, rated 3 to 4 weeks after treatment)
8.0: GLXMAW herbicidal rating ([1]; rate 0.1250 kg/ha) | ZEAMX herbicidal rating (ZEAMX (Corn, Field); rate 0.2500 kg/ha)
5.0: GLXMAW rating ([2]; 0.5000 kg/ha) | SAGPY herbicidal effect rating ([7]; 0.2500 kg/ha) | CYPSE herbicidal effect rating (CYPSE (Flatsedge); 0.1250 kg/ha) | CYPSE herbicidal effect rating (CYPSE (Flatsedge); 0.2500 kg/ha) | CYPSE herbicidal effect rating (CYPSE (Flatsedge); 0.5000 kg/ha)
2.0: CASOB rating (CASOB (Sicklepod); 0.5000 kg/ha) | Herbicidal rating ECHORC ([5]; Rate 0.1250 kg/ha, rated 3 to 4 weeks after treatment)
9.0: GLXMAW herbicidal rating ([1]; rate 0.2500 kg/ha) | IPOHE herbicidal rating ([3]; rate 0.0156 kg/ha) | IPOHE herbicidal rating ([3]; rate 0.0313 kg/ha) | IPOHE herbicidal rating ([3]; rate 0.0625 kg/ha) | IPOHE herbicidal rating ([3]; rate 0.1250 kg/ha) | IPOHE herbicidal rating ([3]; rate 0.2500 kg/ha) | ABUTH rating (ABUTH (Velvetleaf); 0.2500 kg/ha) | ABUTH rating (ABUTH (Velvetleaf); 0.5000 kg/ha) | AMBEL rating (AMBEL (Ragweed, Common) [4]; 0.5000 kg/ha) | AMBEL herbicidal rating (AMBEL (Ragweed, Common) [6]; rate 0.1250 kg/ha) | AMBEL herbicidal rating (AMBEL (Ragweed, Common) [6]; rate 0.2500 kg/ha) | SETVI rating (SETVI (Foxtail, Green); 0.5000 kg/ha)
4.0: GLXMAW rating ([2]; 0.2500 kg/ha) | AMBEL herbicidal rating (AMBEL (Ragweed, Common) [6]; rate 0.0313 kg/ha) | SAGPY herbicidal effect rating ([7]; 0.0625 kg/ha) | SAGPY herbicidal effect rating ([7]; 0.1250 kg/ha) | ZEAMX herbicidal rating (ZEAMX (Corn, Field); rate 0.0156 kg/ha)
5.5: GLXMAW herbicidal rating ([1]; rate 0.0313 kg/ha) | ZEAMX herbicidal rating (ZEAMX (Corn, Field); rate 0.0625 kg/ha)
0.0: CASOB rating (CASOB (Sicklepod); 0.1250 kg/ha) | CASOB rating (CASOB (Sicklepod); 0.2500 kg/ha) | GLXMAW rating ([2]; 0.1250 kg/ha) | AMBEL rating (AMBEL (Ragweed, Common) [4]; 0.1250 kg/ha) | AMBEL rating (AMBEL (Ragweed, Common) [4]; 0.2500 kg/ha) | Herbicidal rating ECHORC ([5]; Rate 0.0313 kg/ha, rated 3 to 4 weeks after treatment) | Herbicidal rating ECHORC ([5]; Rate 0.0625 kg/ha, rated 3 to 4 weeks after treatment) | GALAP rating (GALAP (Galium); 0.1250 kg/ha) | GALAP rating (GALAP (Galium); 0.2500 kg/ha) | AMBEL herbicidal rating (AMBEL (Ragweed, Common) [6]; rate 0.0156 kg/ha) | ECHCG rating (ECHCG (Barnyardgrass); 0.1250 kg/ha) | ECHCG rating (ECHCG (Barnyardgrass); 0.2500 kg/ha) | ECHCG rating (ECHCG (Barnyardgrass); 0.5000 kg/ha) | SAGPY herbicidal effect rating ([7]; 0.0313 kg/ha) | CYPSE herbicidal effect rating (CYPSE (Flatsedge); 0.0313 kg/ha) | CYPSE herbicidal effect rating (CYPSE (Flatsedge); 0.0625 kg/ha) | SETVI rating (SETVI (Foxtail, Green); 0.1250 kg/ha) | SETVI rating (SETVI (Foxtail, Green); 0.2500 kg/ha)
7.5: GLXMAW herbicidal rating ([1]; rate 0.0625 kg/ha) | ZEAMX herbicidal rating (ZEAMX (Corn, Field); rate 0.1250 kg/ha)
7.0: GALAP rating (GALAP (Galium); 0.5000 kg/ha) | AMBEL herbicidal rating (AMBEL (Ragweed, Common) [6]; rate 0.0625 kg/ha) | SAGPY herbicidal effect rating ([7]; 0.5000 kg/ha)
